Results reported in ChEMBL document CHEMBL4732149, “Evaluation of the cellular protection by novel spiropyrazole compounds in dopaminergic cell death” (Eur J Med Chem, 2021).

What was measured:
SH-SY5Y [1] = experiment: Neuroprotective activity against […]-induced cell death in human SH-SY5Y cells at 10 to 50 uM preincubated for 1 hr followed by […] stimulation and measured after 24 hrs by MTT assay relative to control; format: functional; settings: dose 10-50 µM, time 25 hrs
SH-SY5Y [2] = experiment: Cytotoxicity against human SH-SY5Y cells assessed as reduction in cell viability at 10 to 50 uM measured after 24 hrs by MTT assay; format: cell-based; settings: dose 10-50 µM
SH-SY5Y [3] = experiment: Neuroprotective activity against […]-induced cell death in human SH-SY5Y cells assessed as increase in cell viability preincubated for 1 hr followed by […] stimulation and measured after 24 hrs by MTT assay; format: functional, cell-based; settings: dose 10-50 µM, time 25.0 hrs
[4] = Cytotoxicity against human SH-SY5Y cells assessed as cell viability at 50 uM measured after 24 hrs by MTT assay relative to control; format: cell-based; settings: read-out: Activity
SH-SY5Y [5] = experiment: Neuroprotective activity against […]-induced cell death in human SH-SY5Y cells assessed as cell viability at 1 uM preincubated for 1 hr followed by […] stimulation and measured after 24 hrs by MTT assay relative to control; format: functional; settings: time 25 hrs, read-out: Activity

Compound | Activity (SH-SY5Y [1]) [%] | Activity (SH-SY5Y [2]) | Activity (SH-SY5Y [3]) | viability at 24 h, 50 µM [4] [%] | viability at 1 µM (SH-SY5Y [5]) [%]
NC1=NN(c2ccccc2)C(=O)C12[C@@H](c1cccc(Br)c1)c1c([nH]n(-c3ccccc3)c1=O)N[C@H]2c1cccc(Br)c1 (stereo in doubt; 3c-1) [listing 1 of 2 here] | 30.11 | Non-Toxic |  |  | 
NC1=NN(c2ccccc2)C(=O)C12[C@@H](c1cccc(Br)c1)c1c([nH]n(-c3ccccc3)c1=O)N[C@H]2c1cccc(Br)c1 (stereo in doubt; 3c-1) [listing 2 of 2 here] |  |  | Dose-dependent effect |  | 
NC1=NN(c2ccccc2)C(=O)C12[C@@H](c1ccccc1[N+](=O)[O-])c1c([nH]n(-c3ccccc3)c1=O)N[C@H]2c1ccccc1[N+](=O)[O-] (stereo partly drawn) | 20.21 | Non-Toxic | Dose-dependent effect |  | 
NC1=NN(c2ccccc2)C(=O)C12[C@@H](c1cccc([N+](=O)[O-])c1)c1c([nH]n(-c3ccccc3)c1=O)N[C@H]2c1cccc([N+](=O)[O-])c1 (stereo partly drawn) | 22.81 | Non-Toxic | Dose-dependent effect |  | 
NC1=NN(c2ccccc2)C(=O)C12[C@@H](c1ccccc1)c1c([nH]n(-c3ccccc3)c1=O)N[C@H]2c1ccccc1 (stereo partly drawn) | 27.03 | Non-Toxic | Dose-dependent effect |  | 
NC1=NN(c2ccccc2)C(=O)C12[C@@H](c1cccc(Br)c1)c1c([nH]n(-c3ccccc3)c1=O)N[C@H]2c1cccc(Br)c1 (stereo in doubt; 3c-2) [listing 1 of 2 here] | 33.52 |  |  |  | 
NC1=NN(c2ccccc2)C(=O)C12[C@@H](c1ccc(Cl)cc1)c1c([nH]n(-c3ccccc3)c1=O)N[C@H]2c1ccc(Cl)cc1 (stereo partly drawn) | 20.05 | Non-Toxic | Dose-dependent effect | 84.9 | 
Cc1ccc([C@H]2c3c([nH]n(-c4ccccc4)c3=O)N[C@@H](c3ccc(C)cc3)C23C(=O)N(c2ccccc2)N=C3N)cc1 (stereo partly drawn) | 28.66 | Non-Toxic | Dose-dependent effect |  | 
NC1=NN(c2ccccc2)C(=O)C12[C@@H](c1cccc(Br)c1)c1c([nH]n(-c3ccccc3)c1=O)N[C@H]2c1cccc(Br)c1 (stereo in doubt; 3c-2) [listing 2 of 2 here] |  |  | Dose-dependent effect |  | 
COc1cc(/C=C/C(=O)CC(=O)/C=C/c2ccc(O)c(OC)c2)ccc1O [CURCUMIN] |  |  |  |  | 80.7
NC1=NN(c2ccccc2)C(=O)C12[C@@H](c1cccs1)c1c([nH]n(-c3ccccc3)c1=O)N[C@H]2c1cccs1 (stereo partly drawn) | 18.43 | Non-Toxic | Dose-dependent effect |  | 
COc1ccc([C@H]2c3c([nH]n(-c4ccccc4)c3=O)N[C@@H](c3ccc(OC)cc3)C23C(=O)N(c2ccccc2)N=C3N)cc1 (stereo partly drawn) | 26.54 | Non-Toxic | Dose-dependent effect |  | 
